# Measured values from US20230130102A1, “Na/K-ATPase LIGANDS AND USE THEREOF FOR TREATMENT OF CANCER” (Marshall University Research Corporation, priority 2019, published 2023).
# Experiments:
# α1 NKA/Src receptor = test: multi-step assay of MB5 derivatives (NKA and E-cadherin expression, 3D-spheroid invasion); format: cell-based; conditions: for potency relative to MB5: ability to restore NKA and E-cadherin expression and 3D-spheroid invasion data
# Excerpt: A multi-step assay was further designed to identify which compounds among the MB5 derivatives could be developed as an anti-cancer agent in terms of their potential to stop tumor invasion and growth. This multi-step assay included: (A) an ATPase activity assay- to confirm the binding of derivatives to NKA; (B) an assay to measure inhibition of ouabain-induced ERK activation and NKA endocytosis as well as basal Src/ERK/endocytotic activity in PY-17 cells (NKA/Src inverse agonist); (C) an assay to measure the ability to increase the expression of α1 NKA and E-cadherin level and decrease mesenchymal markers (ZEB1, SNAIL, vimentin) and Myc in cancer cells; (D) a 3D culture to test the anti-invasive and anti-growth potential of spheroids; and (E) an in vivo tumor xenograft model (by transplantation into NOD/SCOD mice). Upon analysis of the results of these experiments, it was believed that some of the MB5 derivative compounds show better or similar properties than MB5 as shown for certain of the compounds in FIGS. 6A-6G. Examples of experiments testing the derivatives are further provided for MIIRMB5 D1 (FIGS. 7A-7B), MIIRMB5 D3 (FIGS. 8A-8C), MIIRMB5 D4 (FIGS. 9A-9C), MIIRMB5 D5 (FIGS. 10A-10C), MIIRMB5 D6 (FIGS. 11A-11C), MIIRMB5 D7 (FIGS. 12A-12B), MIIRMB5 D13 (FIGS. 13A-13C), MIIRMB5 D14 (FIGS. 14A-14C), and MIIRMB5 D15 (FIGS. 15A-15C).
# DU145 derived subclones = test: Western blot / immunostaining of EMT markers, Src/FAK activation and proliferation markers in DU145 derived subclones; format: cell-based, human; conditions: subclone 2 cells, PP2 treatment (24 hours)
# [1] = molecular target: T1, α1 NKA/Src receptor complex (Sus scrofa, UniProt P05024); test: ouabain-induced Src/ERK activation in LLC-PK1 cells (immunostaining, Western blot); format: cell-based, pig; conditions: baseline
# T1 construct: endogenous in cells; host or cells: LLC-PK1
# Experimental: Western blot, Immunoprecipitation and Immunostaining. Cells were grown to 100% confluency and Western blot were performed as described before. Images were quantified with ImageJ software from NIH. Immunoprecipitation studies were performed as described before. α1 NKA immunostaining was performed by growing cells on sterilized coverslips in 6 well tissue culture plates and permeabilization/fixation with ice-cold methanol followed by blocking with 5% horse serum and 0.1% Triton X-100 in 1× Phosphate buffered saline (PBS) for 30 minutes. Coverslips were then stained with an anti-α1 NKA antibody (Millipore, Cat #05-369) at 1:100 dilution in 1% BSA (Bovine Serum Albumin) containing 1×PBS solution for overnight. Next day after three washes, coverslips were stained with Alexa Fluor 488 conjugated anti-mouse secondary antibody (Thermo-Fisher) for 1 hour, washed extensively and then imaged using a fluorescent microscope with GFP filter or confocal microscope (LEICA-DMIRE2). E-cadherin and occludin immunostaining was performed in a similar manner. Phospho-Src, phospho ERK1/2 immunostaining were performed as described before and images were taken with a LEICA DMIRE2 confocal microscope.
# Characterization of MB5 activity on the NKA receptor function known as the NKA/Src binary receptor mechanism was conducted in a pig kidney epithelial cells (LLC-PK1)-based platform using immunostaining and Western blot analyses. […] The change of NKA conformation that occurs upon binding of agonists such as ouabain, results in the release and activation of the Src kinase domain from the “Naktide” site of NKA CD3, while the other interaction (constitutive) persists between NKA CD2 and the SH2 domain of Src. […] In LLC-PK1-derived cells with low NKA receptor constitutive activity due to substantial reduction (over 80%) of α1 NKA expression by siRNA (PY17 cells), increased basal Src and ERK activity is observed due to the abnormally high amount of Src kinase that remains in an active conformation. […]
# YFP-tagged α1 NKA = molecular target: T2, YFP-tagged α1 NKA (Rattus norvegicus, UniProt P06685); test: ouabain-induced α1 NKA endocytosis in YFP-α1-TCN cells; format: cell-based; conditions: TCN-YFP α1 cells
# T2 construct: expressed in transfected cells; host or cells: YFP-α1-TCN cells
# Experimental: It is appreciated that ouabain induces Src/ERK activation (increased protein phosphorylation) of LLC-PK1 cells by binding to α1 NKA and thereby initiates a signaling cascade which results in the endocytosis of the α1 NKA to terminate the signaling.
# α1 NKA endocytosis assay. Endocytosis assay was performed as described before.
# Characterization of MB5 activity on the NKA receptor function known as the NKA/Src binary receptor mechanism was conducted in a pig kidney epithelial cells (LLC-PK1)-based platform using immunostaining and Western blot analyses. […] The change of NKA conformation that occurs upon binding of agonists such as ouabain, results in the release and activation of the Src kinase domain from the “Naktide” site of NKA CD3, while the other interaction (constitutive) persists between NKA CD2 and the SH2 domain of Src.
structure (smiles),measurement,setting,value
O=c1[nH]c2c(ccc3c(=O)c4cccc(O)c4oc32)o1 [MIIRMB5 D3],potency relative to MB5,α1 NKA/Src receptor,about 10 fold
Nc1c(O)ccc2c(=O)c3cccc(O)c3oc12 [MIIRMB5 D4],potency relative to MB5,α1 NKA/Src receptor,about 10 fold
O=S1(=O)c2cccc(O)c2Oc2c1ccc(O)c2O [MIIRMB5 D13],effective concentration / dosage,"α1 NKA/Src receptor; NKA and E-cadherin expression, 3D-spheroid invasion",about 100 nM
"CC(C)(C)n1nc(-c2ccc(Cl)cc2)c2c(N)ncnc21 [PP2, reference compound]",E-cadherin expression,DU145 derived subclones,increase in E-cadherin expression
"C[C@@H]1O[C@@H](O[C@H]2C[C@@H](O)[C@]3(CO)[C@H]4[C@H](O)C[C@]5(C)[C@@H](C6=CC(=O)OC6)CC[C@]5(O)[C@@H]4CC[C@]3(O)C2)[C@H](O)[C@H](O)[C@H]1O [ouabain, reference compound]",ERK activation / NKA receptor function by the compound alone,[1],activated ERK signal
same,α1 NKA internalization (endocytosis) by the compound alone,YFP-tagged α1 NKA,induced α1 NKA internalization (endocytosis)
